# Laboratory results taken from publication PMC12040169 (PLOS Biology, 2025).
# Test: in vitro
# Conditions: human, hela cells, % viability
row,SMILES,"viability at 28.5 h, 10 µM"
1,CCn1cc(S(=O)(=O)NC2(c3ccc(F)cc3)CC2)cn1 [CBK282801],112%
2,CN(CCO)C(=O)CCn1c(C(F)F)cc2cccnc21 [CBK282805],91.9%
3,Cc1nc2sccn2c1CN1CCc2sccc2C1C (stereo not shown) [CBK282807],92.4%
4,OC1(c2ccccc2)CCN(Cc2cncn2Cc2ccccc2)C1 (stereo not shown) [CBK282809],110%
5,CCC(CN1CCOCC1)NC(=O)Cc1ccc2c(c1)CCC2 (stereo not shown) [CBK282810],114%
6,CCC(CN1CCOCC1)NC(=O)Cc1coc2cc(C)cc(C)c12 (stereo not shown) [CBK282812],103%
7,CCC(CN1CCOCC1)NC(=O)Cc1coc2c(C)c(C)ccc12 (stereo not shown) [CBK282813],82.1%
8,COc1ccc(OC)c2[nH]c(C(=O)N3CCCC34CC=CC4)cc12 [CBK282814],85.9%
9,Cc1cc(C)n2nc(C(=O)N3CCCC34CC=CC4)cc2n1 [CBK282815],88.7%
10,CCn1cncc1CN1CCC(O)(c2ccccc2F)CC1 [CBK282817],112%
11,CCn1cc(S(=O)(=O)Nc2ccc3c(ccn3C)c2)c(C)n1 [CBK282818],84.2%
12,Cc1cc2c(cc1C)C(=O)CC1(CCN(C(=O)c3ccco3)CC1)O2 [CBK282819],96%
13,CS(=O)(=O)N1CCC2(CC1)Cn1c(cc3ccccc31)C(=O)O2 [CBK282820],87.1%
14,O=C(Cc1ccccn1)NC(Cc1ccsc1)c1nccs1 (stereo not shown) [CBK282821],85.7%
15,Cc1nc(C)c(C(=O)NC(Cc2ccsc2)c2nccs2)s1 (stereo not shown) [CBK282822],82.3%
16,Cc1cnn(CC(=O)NC(Cc2ccsc2)c2nccs2)c1 (stereo not shown) [CBK282825],105%
17,CC(=O)N1CCC2(CC1)CC(O)c1cc(C)c(C)cc1O2 (stereo not shown) [CBK282826],107%
18,COc1ccc(C2(NCc3ccc(N4CCCC4=O)cc3)CC2)cc1 [CBK282834],103%
19,COc1ccc(C2(NCc3ccc4c(c3)n(C)c(=O)n4C)CC2)cc1 [CBK282836],103%
20,Cc1cc2c(cc1C)C(O)CC1(CCN(C(=O)c3ccco3)CC1)O2 (stereo not shown) [CBK282839],84%
21,Cc1ccc(N2CCCC2=O)cc1S(=O)(=O)NC1C2CCCCC21 (stereo not shown) [CBK282840],69%
22,O=C1CCCN1c1ccc(S(=O)(=O)NC2C3CCCCC32)cc1 (stereo not shown) [CBK282842],101%
23,Cn1cc(C(=O)NCC(c2ccc(F)cc2)N2CCCC2)ccc1=O (stereo not shown) [CBK282843],87.4%
24,CN(C)CCN(Cc1cccs1)Cc1cc(Cl)ccc1O [CBK282847],86.2%

row,SMILES,"viability at 28.5 h, 10 µM"
1,CC12CN(Cc3ccccc3)CC1NC(=O)c1ccccc1C2N (stereo not shown) [CBK282850],99.5%
2,CCC(C)NC(=O)C1=CCN(S(C)(=O)=O)C1 (stereo not shown) [CBK282861],101%
3,c1coc(C2N3CCC4(CC3)c3[nH]c5ccccc5c3CCN24)c1 (stereo not shown) [CBK282862],112%
4,O=C1CC2(CCN(C(=O)C3CCCCC3)CC2)Oc2ccc(F)cc21 [CBK282863],74.6%
5,C=CCn1c2cc(C)sc2c2cnn(CCC(C)=O)c(=O)c21 [CBK282868],95.7%
6,CCc1nn(CCC(C)O)c(=O)c2cc3sc(C)cc3n12 (stereo not shown) [CBK282869],89.1%
7,O=C1Oc2nc3ccccc3cc2CN1C1CC1 [CBK282870],87.9%
8,O=C(CN1C(=O)N2CCN=C2c2ccc(Cl)cc21)NCC1CC1 [CBK282877],94.2%
9,Cc1cc(-c2cc(=O)n(Cc3ccccc3C)nc2-c2ccco2)on1 [CBK282878],96.7%
10,Nc1cc(-c2ccco2)nn(Cc2c(Cl)cccc2Cl)c1=O [CBK282880],112%
11,Nc1cc(-c2ccco2)nn(Cc2c(F)cccc2Cl)c1=O [CBK282881],86.1%
12,CC1Cc2cc(CCC(=O)N3CCCc4c(cnn4C)C3)ccc2O1 (stereo not shown) [CBK282882],100%
13,CCCc1ccc(C(=O)NCC(C)n2cncn2)o1 (stereo not shown) [CBK282883],92.5%
14,COc1ccc(CC(=O)NC2CC(C)(C)Cc3c2cnn3C)cc1 (stereo not shown) [CBK282886],99%
15,Cc1cc2cc(C(F)(F)F)nc-2n(CC(=O)NC2CC2)c1 [CBK282888],106%
16,CC(C)CC(=O)N1CCCC(n2c(=O)oc3ccc(Cl)cc32)C1 (stereo not shown) [CBK282891],89.3%
17,O=C(c1ccco1)N1CCCC(n2c(=O)oc3ccc(Cl)cc32)C1 (stereo not shown) [CBK282892],91.5%
18,Cc1ccc2c(c1)C(=O)NCC1(CCN(C(=O)c3ccco3)CC1)O2 [CBK282894],100%
19,C=CCNCc1cc2c(C)nn(-c3ccccc3)c2[nH]c1=O [CBK282898],88.7%
20,CC(=O)N1CCc2sccc2C1c1ccccc1NC(=O)C1CC1 (stereo not shown) [CBK282903],95%
21,COc1ccc(F)c(C2NC(=O)CCC2N)c1 (stereo not shown) [CBK282905],97.6%
22,CC(=O)N1CCc2sccc2C1c1ccc(NC(=O)C2CC2)cc1 (stereo not shown) [CBK282907],87.8%
23,CC(C)n1cccc1CN[C@@H]1CCC(=O)N[C@H]1c1cccc(F)c1 [CBK282908],91.1%
24,O=C1CC[C@@H](NCc2ccccn2)[C@H](c2cc(F)cc(F)c2)N1 [CBK282911],98.8%

row,SMILES,"viability at 28.5 h, 10 µM"
1,CCn1ncc(CN[C@@H]2CCC(=O)N[C@H]2c2cc(F)cc(F)c2)c1C [CBK282914],98.3%
2,Cc1cc(N2CCCC2)c(F)cc1CN1CCC(CO)C1 (stereo not shown) [CBK282916],93.6%
3,O=C1NCC2(CCN(C(=O)c3cccs3)CC2)Oc2ccccc21 [CBK282917],100%
4,O=C1NCC2(CCN(C(=O)C3CCCC3)CC2)Oc2ccccc21 [CBK282920],94.1%
5,Cc1nn(-c2ccccc2)c2[nH]c(=O)c(CNC(C)(C)C)cc12 [CBK282921],101%
6,CC(C)(C)C(=O)N1CCc2cc(C(O)CN3CCCC3)ccc21 (stereo not shown) [CBK282923],93%
7,CC1CCN(CC(O)c2ccc3c(c2)CCN3C(=O)C2CC2)CC1 (stereo not shown) [CBK282927],102%
8,Cc1cc(C)n(-c2cccc(CN3CCC(CO)C3)c2)n1 (stereo not shown) [CBK282928],94.8%
9,OCC1CCN(Cc2ccc(OC3CCCC3)cc2)C1 (stereo not shown) [CBK282929],99.5%
10,C[C@]12CN(Cc3ccccc3)C[C@H]1CNc1ccccc1C(=O)N2 [CBK282932],94.1%
11,C=C(C)CN1CCN(C(=O)C(CC)Oc2ccccc2F)CC1 (stereo not shown) [CBK282935],90.1%
12,CCN1CC(C(=O)N2CCN(C(=O)c3ccccc3F)CC2)CC1=O (stereo not shown) [CBK282937],92.3%
13,Cn1cc(C2CCCCCN2Cc2cc(Cl)ccc2O)cn1 (stereo not shown) [CBK282941],100%
14,OC1(c2ccc(F)cc2)CC2CCC(C1)N2CC1=CCCOC1 (stereo not shown) [CBK282942],106%
15,OCCN(Cc1cccnc1)CC1(c2ccc(Cl)cc2)CC1 [CBK282943],101%
16,Cc1cc2nc(C3CCCN3C(=O)CN3CCCCC3)[nH]c2cc1C (stereo not shown) [CBK282944],91.3%
17,OCCN(Cc1cccnc1)Cc1cccn1Cc1ccccc1F [CBK282945],93.5%
18,COCCCN(Cc1ccccn1)Cc1cccc(F)c1F [CBK282947],84.5%
19,O=C(N[C@H]1C2CCCCC2[C@@H]1c1ccccc1)c1cncnc1 (stereo partly shown) [CBK282949],94.3%
20,COCCCN(Cc1ccccn1)Cc1cc(F)ccc1F [CBK282950],108%
21,O=C(COc1cccnc1)N[C@H]1C2CCCCC2[C@@H]1c1ccccc1 (stereo partly shown) [CBK282951],100%
22,CCn1ncc(CN(CCN(C)C)Cc2cccs2)c1C [CBK282958],107%
23,Cc1nccn1CCCn1cncc1-c1ccc2c(c1)CCCN2C [CBK282962],93.1%
24,Cc1cc(N2CCCC2)c(F)cc1CN1CCC(O)C(C)C1 (stereo not shown) [CBK282963],91.6%

row,SMILES,"viability at 28.5 h, 10 µM"
1,CC(C(=O)N[C@H]1C2CCCCC2[C@@H]1c1ccccc1)N1CCOCC1 (stereo partly shown) [CBK282964],86.4%
2,CCn1c(CN[C@@H]2CCC[C@H]2Cc2cc(C)no2)cnc1SC [CBK282965],96.6%
3,CC(C)C(=O)N1CCCC1c1cc2n(n1)[C@@H](C(F)(F)F)C[C@@H](C)N2 (stereo partly shown) [CBK282966],106%
4,CCc1c(C)sc2ncn(C3CCNCC3)c(=O)c12 [CBK282972],81.2%
5,Cc1ccsc1CN(Cc1nccn1C)CC(C)O (stereo not shown) [CBK282976],92.3%
6,Cc1nn(C(C)C)c(C)c1CN(CCCN(C)C)Cc1ccco1 [CBK282978],86.8%
7,O=C(C1CC1)N1CCC(c2nc(Cc3cccs3)no2)C1 (stereo not shown) [CBK282980],89.6%
8,Fc1ccccc1CN(CCCn1ccnc1)Cc1ccncc1 [CBK282981],102%
9,Cc1ccsc1CN(CCCO)Cc1cn(C)nc1C [CBK282983],95.7%
10,Cc1c(CNC2(c3ccccc3F)CCCC2)c(=O)n(C)c(=O)n1C [CBK282986],85.1%
11,CCCc1cc(C2CCCCCN2C(=O)c2cccnc2)no1 (stereo not shown) [CBK282987],99.5%
12,Clc1ccccc1CN(CCCn1ccnc1)Cc1c[nH]cn1 [CBK282988],100%
13,COc1cccc(CN2CCCC(c3nc(C)n4ccccc34)C2)c1 (stereo not shown) [CBK282989],101%
14,COc1ccc([C@H]2C3CCCCC3[C@@H]2NC(=O)C2CCCO2)cc1 (stereo partly shown) [CBK282990],108%
15,Cc1cc(C)n(CC(=O)N2CCCC2c2ccc(C)c(C)c2)c(=O)n1 (stereo not shown) [CBK282991],99%
16,Cc1ncc(CN(CCN(C)C)Cc2cccs2)n1C [CBK282993],93.4%
17,O[C@@]1(c2ccccn2)CC[C@H]2CN(CC3CCCCC3)C[C@H]21 [CBK282996],96.9%
18,Cc1cc(C[C@@H]2CCC[C@H]2NCc2cc(Cl)ccc2O)on1 [CBK282997],103%
19,CC(C)N1CCC(N(C)Cc2c[nH]nc2C(C)(C)C)CC1 [CBK283002],92.9%
20,CCCC(=O)N1CCCC1c1cc2n(n1)[C@@H](C(F)(F)F)C[C@@H](C)N2 (stereo partly shown) [CBK283003],92.4%
21,COc1ccccc1CN[C@@H]1CCC[C@H]1Cc1cc(C)no1 [CBK283005],103%
22,CC(=O)OCc1ccc(CN2CCCCCC2c2cc(C)no2)o1 (stereo not shown) [CBK283007],100%
